Data published in PubChem BioAssay (NCI).
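Interpolation was linear, between the two tested concentrations surrounding the appropriate level; five concentrations were tested over 48 hours in 96-well plates. GI50: concentration for 50% inhibition of growth. TGI: total growth inhibition.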

Legend:
Experiment in all cases: inhibition of tumour cell growth, NCI panel, 48 h
CAKI-1 renal = tested on: CAKI-1 renal
DU-145 prostate = tested on: DU-145 prostate
HCC-2998 colon = tested on: HCC-2998 colon
HL-60(TB) leukemia = tested on: HL-60(TB) leukemia
HOP-62 NSCLC = tested on: HOP-62 NSCLC
MDA-MB-231 breast = tested on: MDA-MB-231 breast
MDA-N = tested on: MDA-N
NCI-H226 lung = tested on: NCI-H226 lung
NCI-H522 lung = tested on: NCI-H522 lung
NCI/ADR-RES ovarian = tested on: NCI/ADR-RES ovarian
OVCAR-3 ovarian = tested on: OVCAR-3 ovarian
SN12C renal = tested on: SN12C renal
SR leukemia = tested on: SR leukemia
TK-10 renal = tested on: TK-10 renal

Row | Compound | TGI (CAKI-1 renal) | TGI (DU-145 prostate) | TGI (HCC-2998 colon) | TGI (HL-60(TB) leukemia) | TGI (HOP-62 NSCLC) | TGI (MDA-MB-231 breast) | TGI (MDA-N) | TGI (NCI-H226 lung) | TGI (NCI-H522 lung) | TGI (NCI/ADR-RES ovarian) | TGI (OVCAR-3 ovarian) | TGI (SN12C renal) | TGI (SR leukemia) | TGI (TK-10 renal) | GI50 (HL-60(TB) leukemia)
1 | CC(=O)OC/C=C\Cn1nc(Br)c(=O)[nH]c1=O | 22.8 µM | 31.9 µM | 31.7 µM | 17.6 µM | 45.1 µM | 43.4 µM | 32 µM | 30.1 µM | 16.7 µM | 56 µM | 22.5 µM | 55.2 µM | 15.6 µM | 38.2 µM | 
2 | CC1(C)Cc2c(C#N)c(N)c3c(c2CO1)C(=O)OC3=O | > 100 µM |  | > 100 µM | > 100 µM | > 100 µM |  |  | > 100 µM | > 100 µM |  | > 100 µM | > 100 µM | > 100 µM | > 100 µM | 
3 | Cc1[nH]nc(N)c1C(N)=O | > 100 µM |  | > 100 µM | > 100 µM |  |  |  |  | > 100 µM |  |  | > 100 µM |  | > 100 µM | 
4 | COC(=O)c1c(O)ccc2c1c1c(n2Cc2ccc(Cl)cc2Cl)C(=O)c2ccccc2C1=O | 27.2 µM | 31.2 µM | 9.33 µM | 34.2 µM | 23.5 µM | 23.5 µM | 29.5 µM | 24.8 µM | 22 µM | 24.1 µM | 27.2 µM | 5.62 µM | 12.3 µM | 29 µM | 
5 | COc1cccc(/C=N/[N-]C(N)=O)c1[O-].[Ni+2].[OH3+].c1ccc(-c2ccccn2)nc1 | > 100 µM |  | > 100 µM | > 100 µM | > 100 µM |  |  | > 100 µM | > 100 µM |  | > 100 µM | > 100 µM |  |  | 66.9 µM
6 | COc1cc(S(=O)(=O)Nc2ccc(-c3csc(N)n3)cc2)ccc1Cl | 45 µM | 32.4 µM |  | 43.6 µM |  | 31.4 µM | 38.5 µM | 77.5 µM | 42.4 µM | 83.3 µM | 28.9 µM | 38.5 µM | 48.4 µM |  | 
7 | O=C(N/N=C/c1cc(Cl)cc(Cl)c1[O-])c1ccccc1O.O=C(N/N=C/c1cc(Cl)cc(Cl)c1[O-])c1ccccc1O.[Zn+2] | 8.45 µM |  | 13.2 µM | 0.715 µM |  |  |  | 7.61 µM | 0.764 µM |  | 1.85 µM |  | 1.55 µM | 18.5 µM | 
8 | OC1CCOc2ccccc21 (configuration not stated) | > 100 µM |  | > 100 µM | > 100 µM | > 100 µM |  |  | > 100 µM | > 100 µM |  | > 100 µM | > 100 µM | > 100 µM | > 100 µM | 
9 | CC(=O)NC(c1nc2cc(C)c(C)cc2[nH]1)c1nc2cc(C)c(C)cc2[nH]1 | 52.2 µM | 57.7 µM | 34.6 µM | > 100 µM |  | 76 µM | 48.6 µM |  | 18 µM | 89.2 µM | 42.2 µM | 77.4 µM |  | 89.1 µM | 
10 | S=C1CC(c2ccccc2)Sc2ccccc2N1 (configuration not stated) | > 100 µM | > 100 µM |  | > 100 µM | 60.1 µM | > 100 µM | > 100 µM | > 100 µM | > 100 µM | > 100 µM | > 100 µM | > 100 µM | > 100 µM | > 100 µM | 
11 | NC(=O)CCC(N=C(N)c1csc(C2OC(CO)C(O)C2O)n1)C(=O)O (configuration not stated) | > 100 µM |  | > 100 µM | > 100 µM |  |  |  |  | > 100 µM |  |  | > 100 µM |  | > 100 µM | 
12 | CCOC(=O)c1c(Cl)nc2ccccc2c1N=[N+]=[N-] | 43.4 µM |  | > 100 µM | > 100 µM | > 100 µM | 30.1 µM | 44.2 µM | > 100 µM | 31.4 µM |  | 39.7 µM | 30.7 µM | > 100 µM | 99.8 µM | 
13 | COc1ccc(/C(O)=C/c2nc3cccnc3nc2/C=C(\O)c2ccc(OC)cc2)cc1 | 46.5 µM | > 100 µM | > 100 µM | > 100 µM | 20 µM | 31.2 µM | > 100 µM | 22.5 µM |  | 53 µM | 38.8 µM | 42.5 µM | 51.2 µM | 37.7 µM | 
